Data from patent US20060198907A1, “Pharmaceutical, therapeutic, and dietary compositions derived from Lagerstroemia speciosa L. plant” (priority 2004, published 2006).

Molecular target: xanthine oxidase (Homo sapiens, UniProt P47989)
Assay: Inhibition of xanthine oxidase activity
Format: biochemical
Settings: observed by the inventors, in words

Sequence of xanthine oxidase (P47989 whole entry, species assumed): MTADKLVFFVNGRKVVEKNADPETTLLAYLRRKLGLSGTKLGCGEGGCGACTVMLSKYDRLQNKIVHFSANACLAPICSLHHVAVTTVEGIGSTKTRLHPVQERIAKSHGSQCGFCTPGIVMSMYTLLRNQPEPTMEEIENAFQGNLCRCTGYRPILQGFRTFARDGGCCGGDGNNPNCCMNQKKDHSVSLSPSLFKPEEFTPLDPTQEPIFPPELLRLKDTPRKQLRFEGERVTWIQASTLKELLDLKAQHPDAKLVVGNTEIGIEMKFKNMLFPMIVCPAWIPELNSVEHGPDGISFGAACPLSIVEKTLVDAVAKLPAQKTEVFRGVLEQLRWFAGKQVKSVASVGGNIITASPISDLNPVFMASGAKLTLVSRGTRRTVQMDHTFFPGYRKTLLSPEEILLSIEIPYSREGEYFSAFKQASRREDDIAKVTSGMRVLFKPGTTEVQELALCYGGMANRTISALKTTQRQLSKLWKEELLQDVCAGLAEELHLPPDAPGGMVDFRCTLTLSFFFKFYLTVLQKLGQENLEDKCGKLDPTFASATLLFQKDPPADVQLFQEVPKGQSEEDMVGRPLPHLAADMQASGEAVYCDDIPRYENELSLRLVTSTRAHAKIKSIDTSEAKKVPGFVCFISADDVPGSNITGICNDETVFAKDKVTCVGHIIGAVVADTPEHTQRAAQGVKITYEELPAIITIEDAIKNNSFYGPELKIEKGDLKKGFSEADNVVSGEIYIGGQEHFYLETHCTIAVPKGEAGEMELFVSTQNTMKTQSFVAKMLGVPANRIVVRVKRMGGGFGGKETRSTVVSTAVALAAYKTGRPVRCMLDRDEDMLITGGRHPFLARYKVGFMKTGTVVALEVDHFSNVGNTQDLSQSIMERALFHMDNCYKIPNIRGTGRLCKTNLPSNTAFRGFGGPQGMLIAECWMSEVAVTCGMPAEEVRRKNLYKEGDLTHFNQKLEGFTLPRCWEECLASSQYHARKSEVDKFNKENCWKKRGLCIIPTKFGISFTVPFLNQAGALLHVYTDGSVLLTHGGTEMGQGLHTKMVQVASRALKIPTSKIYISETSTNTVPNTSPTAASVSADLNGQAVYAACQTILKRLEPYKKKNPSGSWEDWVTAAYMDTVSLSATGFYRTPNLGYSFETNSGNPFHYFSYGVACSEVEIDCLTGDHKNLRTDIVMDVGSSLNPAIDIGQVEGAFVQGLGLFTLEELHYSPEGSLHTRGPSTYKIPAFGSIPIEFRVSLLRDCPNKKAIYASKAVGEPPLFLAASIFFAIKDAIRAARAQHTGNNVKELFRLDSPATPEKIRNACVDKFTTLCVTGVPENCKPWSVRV

O=C(O)c1cc(O)c(O)c(O)c1Oc1cc2c(=O)oc3c(O)c(O)cc4c(=O)oc(c1O)c2c34 [valoneic acid dilactone]
inhibition of xanthine oxidase activity: inhibition of xanthine oxidase activity
